Tests used:
Format in all cases: cell-based
[1] = system: K. oxytoca strain MGK003 cosmid clones; assay: Growth of selected cosmid library clones of MGK003 on 2-KLG with or without IPTG; settings: within 20 h at 37° C.
Protocol: Prior to transfection of K. oxytoca strain MGK003 with the packaging mixture, the tester strain was transformed with plasmid pCB382 expressing the E. coli lamB gene that functions as λ receptor, which appears to be absent or non-functional in most Klebsiella strains (De Vries, G. E., et al., 1984. Proc. Natl. Acad. Sci. USA 81:6080-6084). The resulting MGK003 [λ^s] strain was transfected with the packaged products as follows:
6. The remainder was centrifuged at 3000 g for 5 min and was resuspended in 1 mL of M9 minimal medium supplemented with 10 μM IPTG (IPTG concentration can be varied up to 100 μM), and aliquots (200 μL) were plated on M9 plates containing 0.5% 2-KLG and 50 μM IPTG. 7.
Plates were incubated at 37° C. for 36 h for selecting candidate pathways that would convert 2-KLG to AsA. (Alternatively, selection can be done at 30° C.)
Among 500,000 clones to which a first selection round was applied, approximately 100 colonies of various sizes appeared on 2-KLG/IPTG plates. These were re-streaked on: (i) LB-kanamycin to verify the presence of the cosmid vector; (ii) 2-KLG/IPTG; and (iii) 2-KLG lacking IPTG to determine if growth of the positive clones on 2-KLG was dependent upon the expression of AsA catabolism. […]

[2] = system: Klebsielia oxytoca; assay: Compound utilization of environmental isolates (growth on minimal medium); settings: Kelbsiella oxytoca isolate
Protocol: Samples from diverse natural environments were collected to use for the isolation of microbes that can utilize ascorbic acid (AsA) as the sole carbon source. No bacterial species has previously been reported to grow on AsA minimal medium.
Environmental samples were collected from freshwater lakes, lemon and orange orchards, residential backyard soils, human and animal solid wastes.
Over 100 microbial isolates, capable of forming visible colonies within 20 hours of incubation at 30° C. on M9 minimal medium containing 0.5% AsA, were selected from these samples. These 100 isolates were then screened for their ability to grow on 2-Keto-L-Gulonate (2-KLG) minimal medium.
Thus, Kelbsiella oxytoca was retained as a candidate for genetic engineering of a host strain that can use AsA under controlled conditions for the selection of cloned microbial pathways from 2-KLG to AsA.

[3] = system: K. oxytoca strain MGK003; assay: Growth of tester strain MGK003 on AsA minimal medium with or without IPTG
Excerpt: To engineer K. oxytoca as a host strain for the selection of biocatalysts which produce AsA, the promoter of the yiaK-S operon was replaced with a DNA fragment that contained the trp-lac hybrid promoter of transcription, the lacO operator, and the lacI^q repressor gene (Brosius, J. 1992. Meth. Enzymol. 216:469-483). This allows the yiaK-S operon, and therefore AsA catabolism, to be turned ON and OFF in a tightly controlled manner in the presence or absence of IPTG, a non-metabolizable inducer of the lac promoter. Practically, a 5-way ligation was set up among: (i) the pMAK705 integration vector which carries a chloramphenicol resistance marker and the thermosensitive origin of replication from plasmid […] (Hamilton, C. M., et al., 1989. J. Bacteriol. 171:4617-4622); (ii) a 0.8 kb fragment containing the 5′ region of the yiaJ gene and its promoter sequences; (iii) the spectinomycin resistance marker retrieved from Staphylococcus aureus Tn554 (Murphy, E. 1985. Mol. Gen. Genet. 200:33-39) to follow integration events; (iv) the lacI^q-lacO-trc promoter fragment retrieved from pSE380 (InVitrogen, Carlsbad, Calif.); and (v) a 1 kb fragment containing the 5′ end of yiaK, including its ribosome binding site for translation initiation while excluding the promoter sequences of the yiaK-S operon (FIG. 10). […]

SMILES	Growth of two retained clones ([1]; 2-KLG without IPTG)	Growth of two retained clones ([1]; 2-KLG/IPTG)	Utilization as sole source of carbon and energy / growth [2]	Growth on M9 minimal medium ([3]; MGK003, AsA 0.25% and IPTG 10 to 100 μM)	Growth on M9 minimal medium ([3]; MGK003, AsA 0.25%, lacking IPTG)
O=C(O)C(=O)[C@@H](O)[C@H](O)[C@@H](O)CO [2-KLG, 2-keto-L-gulonate]	not on 2-KLG without IPTG	grew	could not grow on 2-KLG		
O=C1O[C@H]([C@@H](O)CO)C(O)=C1O [AsA, ascorbic acid]			could utilize AsA as its sole source of carbon and energy	able to grow	no growth

— patent publication US6368793B1, “Metabolic selection methods” (MicroGenomics, Inc., priority 1998, dated 2002)
